PubChem BioAssay (NCI)
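Results reflect a 48-hour exposure of cells in 96-well plates to compound at five concentrations. TGI: total growth inhibition.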

Assays:
Assay in all cases: NCI-60 cell line screen, 48 h
CAKI-1 renal = tested on: CAKI-1 renal
NCI-H460 lung = tested on: NCI-H460 lung
DLD-1 colon = tested on: DLD-1 colon
NCI-H226 lung = tested on: NCI-H226 lung
COLO 205 colon = tested on: COLO 205 colon
SN12C renal = tested on: SN12C renal
MALME-3M melanoma = tested on: MALME-3M melanoma
SK-MEL-5 melanoma = tested on: SK-MEL-5 melanoma
HOP-92 NSCLC = tested on: HOP-92 NSCLC
UACC-257 melanoma = tested on: UACC-257 melanoma
SK-MEL-28 melanoma = tested on: SK-MEL-28 melanoma
A498 renal = tested on: A498 renal
UACC-62 melanoma = tested on: UACC-62 melanoma
HCC-2998 colon = tested on: HCC-2998 colon
MCF7 breast = tested on: MCF7 breast
NCI/ADR-RES ovarian = tested on: NCI/ADR-RES ovarian
PC-3 prostate = tested on: PC-3 prostate
HS 578T breast = tested on: HS 578T breast
MDA-MB-435 = tested on: MDA-MB-435
BT-549 breast = tested on: BT-549 breast

Row | Compound | TGI (CAKI-1 renal) [µM] | TGI (NCI-H460 lung) [µM] | TGI (DLD-1 colon) [µM] | TGI (NCI-H226 lung) [µM] | TGI (COLO 205 colon) [µM] | TGI (SN12C renal) [µM] | TGI (MALME-3M melanoma) [µM] | TGI (SK-MEL-5 melanoma) [µM] | TGI (HOP-92 NSCLC) [µM] | TGI (UACC-257 melanoma) [µM] | TGI (SK-MEL-28 melanoma) [µM] | TGI (A498 renal) [µM] | TGI (UACC-62 melanoma) [µM] | TGI (HCC-2998 colon) [µM] | TGI (MCF7 breast) [µM] | TGI (NCI/ADR-RES ovarian) [µM] | TGI (PC-3 prostate) [µM] | TGI (HS 578T breast) [µM] | TGI (MDA-MB-435) [µM] | TGI (BT-549 breast) [µM]
1 | CC(CN(C)C)C(=O)c1ccccc1 (stereo not drawn) | 15.6 | > 100 | 32.6 | > 100 | > 67.5 | 33.8 | > 61.1 | > 100 | 6.87 | > 84.7 | > 56.6 | > 76.5 | > 57.4 | 63 |  |  |  |  |  | 
2 | COc1cc(C2c3cc4c(cc3[C@@H](Oc3ccc(F)cc3)C3COC(=O)[C@H]23)OCO4)cc(OC)c1O (stereo partly drawn) | 14.5 | 25.4 | > 100 |  | 4.86 | > 100 | 31.8 | 10.9 | > 100 | 22.8 | > 100 |  | > 100 | > 100 | > 58 |  |  |  |  | 
3 | COc1ccc(C2C3CCCC(C3=O)C(c3ccc(OC)cc3)N2N=O)cc1 (stereo not drawn) | > 100 | 42.2 | > 100 | 61.6 | 42.3 | 39.2 | 20 | 32.4 | > 100 | 82.7 | > 100 | 25.4 | 97.4 | 59.6 | 38.2 | > 87.2 |  |  |  | 
4 | CC1CN=C(c2cccc(-c3nc(-c4cccc(C5=NCC(C)N5)c4)nc(N(C)C)n3)c2)N1 (stereo not drawn) | 32.2 | 4.38 |  | 6.47 | 2.5 | 3.46 | 14.8 | 7.93 | 20.3 | 11 | 13.2 | 5.99 | 3.83 | 2.39 | 3.33 | 35.9 | 3.31 | 17.1 | 2.61 | 13.9
5 | CCCN1C(=O)/C(=C\c2ccc(OC)c(OC)c2)SC1=Nc1ccccc1 | > 100 | > 100 |  | > 100 | > 100 | > 100 | > 100 | > 100 | > 100 | > 100 | > 100 | > 100 | > 100 | > 100 | > 100 | > 100 | > 100 | > 100 | > 100 | > 100
6 | CC1(C)CCCCCC(C)(CCCO)C1=O (stereo not drawn) | > 100 | > 100 |  | > 100 | > 100 | > 100 | > 100 | > 100 | > 100 | > 100 | > 100 | > 100 | > 100 | > 100 | > 100 | > 100 | > 100 | > 100 | > 100 | > 100
7 | O=S(=O)(/N=C(\NO)Nc1ccc(Cl)cc1)c1ccccc1 | 23 | > 59.3 |  | > 100 | 51.5 | 35.2 | 22.5 | 21.8 | 22.4 | 26.6 | 33.9 | 27.3 | 36.9 | 22 | > 100 | 60.3 | 37.3 | 34.6 | > 64 | 33.7
8 | Nc1c2c(nc3ccccc13)-c1ccccc1NCCC2 | > 100 | 38 |  | > 100 | 35.2 | > 100 | 32.9 | 28.6 | 65.6 | 28.3 | 51.1 | 55.5 | 41.2 | 27 | > 100 | > 100 | > 100 | > 100 | 58.2 | > 100
9 | CCN(CC)CCCNc1[nH]ncc2c(C)c3nc4ccc(OC)cc4c3cc12 | 29.3 | 4.66 |  | 1.7 | 2.89 | 1.77 | 2.36 | 2.83 | 3.14 | 7.18 | 2.01 | 6.35 | 2.74 | 2.33 | 1.28 | > 100 | 1.73 | 4.25 | 2.46 | 3.19
10 | CC(C)(C)OC(=O)Cn1ncn(NC(=O)Cc2ccccc2)c1=O | > 10 | > 10 |  | > 10 | > 10 | > 10 | > 10 | > 10 | > 10 | > 10 | > 10 | > 10 | > 10 | > 10 | > 10 | > 10 | > 10 | > 10 | > 10 | > 10
11 | O=[N+]([O-])/C(C(Cl)=C(Cl)Cl)=C(\N1CCCCC1)n1nnc2ccccc21 | > 55.9 | 47.6 |  | 42.6 | 34.4 | 33.7 | 39.6 | 32.7 | 39.6 | 37.2 | 48.3 | 39.1 | 36.7 | 26.2 | > 69.4 | > 81.1 | 32.8 | 81.8 | > 100 | 49.4
12 | CC[P+]1(c2ccccc2)[C@@H](C)CC[C@@H]1C | > 100 | > 100 |  | > 100 | > 100 | > 100 | > 100 | > 100 | > 100 | > 100 | > 100 | > 100 | > 100 | > 100 | > 100 | > 100 | > 100 | > 100 | > 100 | > 100
13 | COc1ccc2c3c1OC1C34CCN(C)C(C2)C4=CC(I)C1(OC)OC (stereo not drawn) | 25.6 | 28 |  | 59.3 | 28.7 | 18.9 | 21.9 | 25.6 | 24.5 | 26.9 | 25.9 | 56.7 | 28 | 21.9 | 19 | > 100 | 23.2 | 79.7 | 15.5 | 36.2
